Results from patent publication US8324131B2, “Composition and method for controlling plant diseases” (Sumitomo Chemical Company, Limited, priority 2008, dated 2012).

Legend:
[1] = test system: Pythium ultimum, pathogen of cucumber damping-off; assay: Cucumber damping-off seed treatment test (Test Example 1); type: in vivo; details: 18° C., 13 days
Excerpt: An acetone solution of ethaboxam and an acetone solution of metconazole were mixed to prepare mixed liquids containing ethaboxam and metconazole in predetermined concentration. These mixed liquids were adhered on the surface of cucumber (Sagamihanjiro) seeds and allowed to stand still overnight. A plastic pot was filled with sandy soil and the seeds were disseminated on it. Then the seeds were covered with sandy soil which had been mixed with a bran medium on which Pythium ultimum, pathogen of cucumber damping-off, had been allowed to grow. They were irrigated and allowed to grow at 18° C. under humidity for 13 days, and thereafter control effect was checked.
As a comparison, acetone solutions containing ethaboxam in the predetermined concentration and acetone solutions containing metconazole in the predetermined concentration were prepared and subjected to similar tests.
In order to calculate the control value, the incidence of disease was also determined in the case in which the seeds had not been treated with the agent.
The incidence of disease was calculated by Equation 1 and the control value was calculated by Equation 2 based on the incidence of disease.
Incidence of disease=(Number of no emerging seedlings and number of seedlings in which development of disease was observed)×100/(Number of total disseminated seeds) “Equation 1” Control value=100×(A−B)/A “Equation 2”;
A: Incidence of disease of plant in untreated area
B: Incidence of disease of plant in treated area
Generally, the control value expected for the case in which the given two kinds of active ingredient compounds are mixed and used for the treatment, the so-called control value expectation is calculated from the following Colby's calculating equation. E=X+Y−(X×Y)/100 “Equation 3”;
X: Control value (%) when active ingredient compound A is used for treatment in M g per 100 kg or M ppm of seeds
Y: Control value (%) when active ingredient compound B is used for treatment in N g per 100 kg or N ppm of seeds
E: Control value (%) expected for the case in which active ingredient compound A in M g per 100 kg or M ppm of seeds and active ingredient compound B in N g per 100 kg or N ppm of seeds are mixed and used for treatment (hereinbelow referred to as “control value expectation”) “Synergetic effect (%)” (Actual control value)×100/(Control value expectation)

[2] = test system: pathogen of cucumber gray mold; assay: Cucumber gray mold foliar spray test (Test Example 2); type: in vivo, Botrytis cinerea; details: 12.5 ppm of each test compound; for Actual control value: spray to stalk and leaves of cucumber seedlings, 12° C., high humidity, 6 days
Excerpt: A plastic pot was filled with sandy soil and cucumber (Sagamihanjiro) seeds were disseminated on it. Then the seeds were allowed to grow in a glasshouse for 12 days. A wettable powder of ethaboxam and a wettable powder of metconazole were individually diluted with water and then mixed to prepare mixed liquids containing ethaboxam and metconazole in predetermined concentration. These mixed liquids were sprayed to the stalk and leaves of cucumber seedlings to adhere them sufficiently on the surface of leaves of the seedlings. After spraying, the cucumber seedlings were air-dried and a PDA medium containing spores of pathogen of cucumber gray mold was placed onto the leaves of the seedlings. Then the plants were allowed to stand at 12° C. under high humidity for 6 days, and thereafter control effect was checked.
As a comparison, mixed liquids containing ethaboxam and triadimefon, mixed liquids containing ethaboxam and triadimenol, and mixed liquids containing ethaboxam and imazalil were prepared, sprayed to the stalk and leaves of cucumber seedlings to adhere them sufficiently on the surface of leaves of the seedlings, and subjected to similar tests, respectively. In addition, the above wettable powder of ethaboxam and the above wettable powder of metconazole were individually diluted with water to prepare liquids containing ethaboxam in predetermined concentration and liquids containing metconazole in predetermined concentration and then subjected to similar tests.
The incidence of disease was calculated by Equation 4 and the control value was calculated by Equation 2 based on the incidence of disease.
Incidence of disease=(diameter of leaf spot of plant in treated area)/(diameter of leaf spot of plant in untreated area)×100 “Equation 4”

Row | SMILES | Actual control value ([1]; Metconazole 5 g/100 kg-seed alone) [%] | Actual control value ([1]; Metconazole 10 g/100 kg-seed alone) [%] | Actual control value ([1]; Metconazole 20 g/100 kg-seed alone) [%] | Control value expectation [2] [%] | Actual control value [2] [%] | Actual control value ([1]; Ethaboxam 5 g/100 kg-seed alone) [%] | Actual control value ([1]; Ethaboxam 10 g/100 kg-seed alone) [%]
1 | CC1(C)CCC(Cc2ccc(Cl)cc2)C1(O)Cn1cncn1 (stereo not drawn) [Metconazole] | 0 | 0 | 0 | 0 | 0 | – | –
2 | CCNc1nc(CC)c(C(=O)NC(C#N)c2cccs2)s1 (stereo not drawn) [Ethaboxam] | – | – | – | 0 | 0 | 25 | 58
